Measurements published in patent US20030224000A1, “Methods for blocking or alleviating staphylococcal nasal colonization by intranasal application of monoclonal antibodies” (priority 2001, published 2003).

Experiments:
[1] = tested on: streptomycin resistant S. aureus type 5 (SA5); assay: Mouse nasal colonization model, S. aureus preincubated with MAb before instillation; type: in vivo, mice
Method: Kiser et al. developed a staphylococcal nasal colonization model in mice to study staphylococcal factors that influence nasal colonization (30). […] Briefly, streptomycin resistant S. aureus type 5 was grown on high salt Columbia agar to promote capsule formation. The bacteria were washed with sterile saline to remove media components and resuspended at ˜10^8 organisms/animal dose in saline containing various concentrations and combinations of anti-staphylococcal or irrelevant control MAbs. Following a preincubation of 1 hr, the bacteria were repelleted and resuspended in a final volume of 10 μl per animal dose in either saline or saline containing antibody. Mice that have been maintained on streptomycin-containing water for 24 hrs were sedated with anesthesia. Staphylococci were instilled in the nares of the mice by pipetting without contact with the nose.
Generally, following four to seven days during which the animals were maintained on streptomycin-containing water, the animals were sacrificed and the noses removed surgically and dissected. Nasal tissue was vortexed vigorously in saline plus 0.5% Tween-20 to release adherent bacteria, and the saline was plated on Columbia blood agar and tryptic soy agar containing streptomycin to determine colonization.
According to this procedure, streptomycin-resistant S. aureus type 5 (SA5, 1 to 3×10^8/mouse) was preincubated for 1 hr in saline or saline containing A110 (2-3 mg purified IgG/mouse dose of 1-3×10^8 bacteria). Following preincubation, the bacteria were pelleted and resuspended in saline or in saline containing A110 (10 μl/mouse dose). Ten mice each were intranasally instilled with SA5 in saline or SA5 in A110. Table 4 tabulates three experiments showing that nasal application of A110 in PBS blocks and alleviates staphylococcal nasal colonization.

[2] = tested on: S. aureus strain MBT 5040; assay: Minimal inhibitory concentration (MIC); type: cell-based; conditions: Staphylococcus aureus; S. aureus MBT 5040, clinical MRSA strain
[3] = Table 5: 2 × 10^8 SA5 instilled with MAb, 2 mg/mouse dose

Compound	Effect on staphylococcal nasal colonization in mice ([1]; MAb in saline, Table 5 experiment)	Average number of colonies recovered per mouse [1, 3]	Number of mice colonized [1, 3]	MIC [2] [µg/mL]
Medi 493: irrelevant control, chimeric IgG1 MAb against RSV (MedImmune)	no effect	137	9/9	
COc1cccc(OC)c1C(=O)N[C@@H]1C(=O)N2[C@@H]1SC(C)(C)[C@@H]2C(=O)O [methicillin]				> 36
